Results taken from US4689345A, “Oxygenated alkyl substituted bicyclo alkanes” (CBD Corporation, priority 1986, dated 1987).
Read-outs that look alike come from different tables or passages of the source.

Columns and labels:
[1] = test system: Saccharomyces cerevisiae; experiment: Fermentation: ethanol production; type: cell-based
[2] = test system: estrogen receptor; experiment: Estrogen receptor inhibition, Candida; type: binding
[3] = test system: progesterone receptor; experiment: Progesterone receptor inhibition, Candida; type: binding
[4] = test system: estrogen receptor; experiment: Estrogen receptor inhibition, Torulopsis; type: binding
[5] = test system: progesterone receptor; experiment: Progesterone receptor inhibition, Torulopsis; type: binding
[6] = test system: androgen receptor; experiment: Androgen receptor inhibition, Coccodia; type: binding
[7] = test system: progesterone receptor; experiment: Progesterone receptor inhibition, Coccodia; type: binding
[8] = test system: androgen receptor; experiment: Androgen receptor inhibition, Trichophyton; type: binding
[9] = test system: estrogen receptor; experiment: Estrogen receptor inhibition, Trichophyton; type: binding
[10] = test system: androgen receptor; experiment: Androgen receptor inhibition, Cryptococci; type: binding
[11] = test system: estrogen receptor; experiment: Estrogen receptor inhibition, Sporotrichum; type: binding
[12] = test system: progesterone receptor; experiment: Progesterone receptor inhibition, Sporotrichum; type: binding
[13] = test system: androgen receptor; experiment: Androgen receptor inhibition, Norcardia; type: binding
[14] = test system: progesterone receptor; experiment: Progesterone receptor inhibition, Norcardia; type: binding
[15] = test system: estrogen receptor; type: binding, Histoplasma
[16] = test system: androgen receptor; experiment: Androgen receptor inhibition, Saccharomyces cerevisiae strains; conditions: DHT:anti-androgen 1:1,000
[17] = test system: estrogen receptor; experiment: Estrogen receptor inhibition, Saccharomyces cerevisiae strains; conditions: DHT:anti-androgen 1:1,000
[18] = test system: progesterone receptor; experiment: Progesterone receptor inhibition, Saccharomyces cerevisiae strains; conditions: DHT:anti-androgen 1:1,000
[19] = test system: collagen:elastin formation; experiment: Collagen synthesized and elastic increase compared to control, by patient; type: cell-based, human; conditions: anti-androgen to DHT 1,000:1
[20] = biological target: T1, androgen receptor sites (keloid cytosol) (Homo sapiens, UniProt P10275); experiment: Keloid cytosol steroid binding assay, androgen (DHT)
T1 construct: Surgical excision of keloids was performed from clinic and private patient populations; from tissue; host or cells: cytosol of surgically excised keloids
T1 sequence (P10275 1-920): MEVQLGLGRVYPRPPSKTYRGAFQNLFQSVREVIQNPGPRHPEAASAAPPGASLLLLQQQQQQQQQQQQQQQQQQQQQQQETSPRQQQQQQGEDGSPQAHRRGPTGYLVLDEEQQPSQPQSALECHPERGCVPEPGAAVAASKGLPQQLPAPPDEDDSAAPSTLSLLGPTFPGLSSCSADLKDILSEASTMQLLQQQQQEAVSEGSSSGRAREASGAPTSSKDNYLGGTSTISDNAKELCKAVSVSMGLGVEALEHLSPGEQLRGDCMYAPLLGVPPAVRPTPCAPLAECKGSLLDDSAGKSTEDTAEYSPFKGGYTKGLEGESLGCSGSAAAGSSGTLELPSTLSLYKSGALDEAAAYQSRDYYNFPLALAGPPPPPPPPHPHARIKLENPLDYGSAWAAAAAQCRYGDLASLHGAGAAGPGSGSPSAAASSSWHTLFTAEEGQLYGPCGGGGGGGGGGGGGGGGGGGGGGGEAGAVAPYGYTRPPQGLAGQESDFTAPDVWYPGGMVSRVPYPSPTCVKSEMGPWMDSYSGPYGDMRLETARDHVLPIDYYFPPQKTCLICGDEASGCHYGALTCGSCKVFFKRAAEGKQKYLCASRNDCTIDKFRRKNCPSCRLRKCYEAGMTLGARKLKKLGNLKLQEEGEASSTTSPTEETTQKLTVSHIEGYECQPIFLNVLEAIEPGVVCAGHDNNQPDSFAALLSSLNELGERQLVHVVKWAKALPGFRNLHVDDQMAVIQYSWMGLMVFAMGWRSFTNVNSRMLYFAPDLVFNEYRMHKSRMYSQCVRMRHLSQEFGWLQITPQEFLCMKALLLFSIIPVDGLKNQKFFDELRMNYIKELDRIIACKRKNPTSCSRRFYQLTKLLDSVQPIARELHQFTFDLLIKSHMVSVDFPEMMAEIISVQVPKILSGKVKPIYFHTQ

[21] = test system: estrogen receptor (keloid cytosol); experiment: Keloid cytosol steroid binding assay, estrogen; parameters: species or system human
[22] = test system: estrogen receptors; experiment: Effect on estrogen receptors in breast capsule tissue; type: binding, human; conditions: breast capsule / hard band tissue
Description: (§1) "Hard fibrous band" formation was retarded around breast implants following augmentation surgery.
The tissues were evaluated, with appropriate controls, for effects by the novel anti-androgen.

[23] = test system: hard fibrous band; experiment: Hard fibrous band formation around breast implants following augmentation surgery; parameters: species or system human
Source text: as §1

[24] = biological target: T2, androgen receptor (Homo sapiens, UniProt P10275); experiment: Androgen receptor blocking in breast capsule (hard band) tissue; type: binding; parameters: from tissue; host or cells: breast capsule (hard fibrous band) tissue; concentration or dose not given beside the values
T2 sequence (P10275 1-920): T1 sequence (P10275 1-920)
Source text: In addition to interabdominal adhesions following surgery, the other most common post-surgical fibrous complication is that of a hard fibrous band developing around breast implants following breast augmentation surgery. It has been postulated that these bands may be caused by keloid formation under the skin. Such tissues were studied to evaluate the effect of the anti-androgens of this invention on other keloid tissue.

SMILES: CCC(O)CCCCC1CCC2CC(=O)CC12 (stereo not drawn) [Compound IV]
- depression of ethanol production ([1]; other strains): one-eighth its normal rate
- increase of ethanol production ([1]; some strains): as much as three times the natural rate
- % Estrogen Receptor Inhibition [2]: 0%
- % Progesterone Receptor Inhibition [3]: 7%
- % Estrogen Receptor Inhibition [4]: 0%
- % Progesterone Receptor Inhibition [5]: 6%
- % Androgen Receptor Inhibition [6]: 67%
- % Progesterone Receptor Inhibition [7]: 4%
- % Androgen Receptor Inhibition [8]: 81%
- % Estrogen Receptor Inhibition [9]: 0%
- % Androgen Receptor Inhibition [10]: 76%
- % Estrogen Receptor Inhibition [11]: 0%
- % Progesterone Receptor Inhibition [12]: 7%
- % Androgen Receptor Inhibition [13]: 50%
- % Progesterone Receptor Inhibition [14]: 0%
- % Estrogen Receptor Inhibition [15]: 0%
- % Androgen Receptor Inhibition ([16]; strain 1): 16%
- % Androgen Receptor Inhibition ([16]; strain 2): 37%
- % Androgen Receptor Inhibition ([16]; strain 3): 92%
- % Androgen Receptor Inhibition ([16]; strain 4): 76%
- % Androgen Receptor Inhibition ([16]; strain 5): 39%
- % Androgen Receptor Inhibition ([16]; strain 6): 59%
- % Androgen Receptor Inhibition ([16]; strain 7): 87%
- % Estrogen Receptor Inhibition ([17]; strain 1): 0%
- % Estrogen Receptor Inhibition ([17]; strain 2): 0%
- % Estrogen Receptor Inhibition ([17]; strain 3): 0%
- % Estrogen Receptor Inhibition ([17]; strain 4): 0%
- % Estrogen Receptor Inhibition ([17]; strain 5): 0%
- % Estrogen Receptor Inhibition ([17]; strain 6): 0%
- % Estrogen Receptor Inhibition ([17]; strain 7): 0%
- % Progesterone Receptor Inhibition ([18]; strain 1): 2%
- % Progesterone Receptor Inhibition ([18]; strain 2): 1%
- % Progesterone Receptor Inhibition ([18]; strain 3): 0%
- % Progesterone Receptor Inhibition ([18]; strain 4): 0%
- % Progesterone Receptor Inhibition ([18]; strain 5): 3%
- % Progesterone Receptor Inhibition ([18]; strain 6): 8%
- % Progesterone Receptor Inhibition ([18]; strain 7): 4%

SMILES: CCC(CCCCC1CCC2CC(=O)CC12)OC (stereo not drawn) [Compound V, 2-(5-Methoxyhept-1-yl)bicyclo[3.3.0]octan-7-one]
- Fold Elastic Increase Compared to Control ([19]; patient 1): 1.4 Fold
- Fold Elastic Increase Compared to Control ([19]; patient 2): 4.7 Fold
- Fold Elastic Increase Compared to Control ([19]; patient 3): 2.0 Fold
- Fold Elastic Increase Compared to Control ([19]; patient 4): 4.0 Fold
- Fold Elastic Increase Compared to Control ([19]; patient 5): 6.0 Fold
- Fold Elastic Increase Compared to Control ([19]; patient 6): 2.0 Fold
- Fold Elastic Increase Compared to Control ([19]; patient 7): 3.0 Fold
- Fold Elastic Increase Compared to Control ([19]; patient 8): 3.0 Fold
- Fold Elastic Increase Compared to Control ([19]; patient 9): 4.0 Fold
- Fold Elastic Increase Compared to Control ([19]; patient 10): 6.0 Fold
- Fold Elastic Increase Compared to Control ([19]; patient 11): 3.0 Fold
- % Block ([20]; patient 1, suprapubic): 43%
- % Block ([20]; patient 2, chest): 24%
- % Block ([20]; patient 3, neck): 57%
- % Block ([20]; patient 4, inguinal groin): 86%
- effect on binding of estrogen [21]: no effect
- effect on estrogen receptors [22]: without any significant effects
- effect on estrogen receptors ([22]; listed as 2-(5-methoxyhept-1-yl)bicyclo[3.3.0]octan-7-one): no significant effects
- hard fibrous band formation around breast implants [23]: retarded
- Mean % Androgen Inhibition ([24]; breast capsule group 1): 17%
- Mean % Androgen Inhibition ([24]; breast capsule group 2): 49%
- Mean % Androgen Inhibition ([24]; breast capsule group 3): 70%
- Mean % Androgen Inhibition ([24]; breast capsule group 4): 74%
